For this test, the target named is T1, P450ZoGa (CYP236A2, WP_013995999) (Zobellia galactanivorans, UniProt G0L713).
T1 sequence (G0L713 1-387): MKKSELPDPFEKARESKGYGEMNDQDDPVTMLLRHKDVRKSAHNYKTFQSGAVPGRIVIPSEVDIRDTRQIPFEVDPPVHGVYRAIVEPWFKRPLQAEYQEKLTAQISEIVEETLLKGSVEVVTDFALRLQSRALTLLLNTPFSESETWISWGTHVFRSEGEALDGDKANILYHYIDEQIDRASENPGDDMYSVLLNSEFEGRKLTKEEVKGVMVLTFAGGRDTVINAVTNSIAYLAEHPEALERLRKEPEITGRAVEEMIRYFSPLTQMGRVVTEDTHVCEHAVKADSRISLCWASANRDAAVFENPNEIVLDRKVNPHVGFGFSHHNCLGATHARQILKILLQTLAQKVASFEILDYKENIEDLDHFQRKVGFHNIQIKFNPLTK
Kind of test: crystal structure of soaked complex. Type of test: binding.

Compound `COC[C@H]1OC(O)[C@H](O)[C@@H](O)[C@H]1O` (stereo partly drawn) [G6Me, 6-O-methyl-D-galactose] gave a Kd of 980 ± 120 µM.

(Values after publication PMC6292453 (Biochemical Journal, 2018).)
